The source made the active and inactive calls. The calls are words filed in the database; no cut-off is given here.
How the values were obtained:
Format in all cases: functional
[1] = test system: IGROV-1; test: Antitumor activity against human IGROV1 cells
[2] = test system: NCI-H522; test: Antitumor activity against human NCI-H522 cells
[3] = test system: IGROV-1; test: Antitumor activity against human IGROV1 cell xenografted athymic mouse assessed as increase in life span at 50 mg/kg, ip once daily; conditions: route intraperitoneal

| Compound | Activity [1] | Activity [2] | Activity [3] [days] |
| --- | --- | --- | --- |
| C#C[C@@H](O)/C=C/CCCCCCCCC(C)CCCCCCCC (stereo not given in full) | Active | Active |  |
| C#C[C@@H](O)/C=C/CCCCCCCCCCCCCCC | Active | Active | 36.5 |
